System: Bloodstream form of Trypanosoma brucei, strain Lister 427
Test: Trypanosoma brucei growth inhibition assay (CellTiter-Glo, 24 h)
Format: cell-based
Details: Trypanosoma brucei; T. Brucei Growth Inibition Assay, class symbols; read-out: T. Brucei GI EC50
Experimental: Bloodstream form of Trypanosoma brucei, strain Lister 427 (provided by Prof. Miguel Navarro, Instituto de Parasitologia y Biomedicina “Lopez-Neyra” Avda. Conocimiento S/N Parque Tecnologico Ciencias de la Salud—Spain; ref. Navarro M. and Cross G. A. M. Molecular and Cellular Biology, 1996, Vol. 16, No. 7, pp. 3615-3625) were grown in IMDM Iscove's Modified Dulbecco's Medium (SIGMA #17633) supplemented with: 3.024 g/l sodium bicarbonate, hypoxanthine 1 mM, thymidine 0.16 mM, bathocuprione sulfonic acid 0.05 mM, cysteine 1.5 mM, ß-mercaptoethanol […] and 10% foetal bovine serum (heat-inactivated at 56° C. for 30 min). Parasites were grown at 37° C. in flasks with vented caps in a 5% CO2 incubator to a maximum cell density of about 2×10^6/ml and diluted every two-three days.
The compounds of the invention were dissolved in DMSO and transferred to assay plates by acoustic droplet ejection (ATS-100, EDC Biosystems, USA) in order to obtain an appropriate concentration and to keep the concentration of DMSO below or equal to 0.25% in the final assay volume of 30 μL. 1500 parasites resuspended in 30 μL of culture medium were then transferred to each well of a 384-well plate.
After an incubation period of 24 hours at 37° C., each well is added 15 μl of CellTiter-Glo® Reagent (Promega) and incubated at room temperature. 5-10 min post incubation, the plate is read using a luminometer (ViewLux®). A known inhibitor of the growth of T. brucei was used as the reference positive control.

`COc1ccc2nc(C(F)(F)F)n(CC(=O)N3CCN(C4CCOC4)CCC3c3ncc(-c4cc5ccccc5nc4OC)[nH]3)c2c1` (stereo not shown) [2-(6-methoxy-2-(trifluoromethyl)-1H-benzo[d]imidazol-1-yl)-1-(7-(5-(2-methoxyquinolin-3-yl)-1H-imidazol-2-yl)-4-(tetrahydrofuran-3-yl)-1,4-diazepan-1-yl)ethan-1-one] and `COc1ccc2nc(C(F)(F)F)n(CC(=O)N3CCN(C4CCS(=O)(=O)CC4)CCC3c3ncc(-c4cc5ccccc5nc4OC)[nH]3)c2c1` (stereo not shown) [1-(4-(1,1-dioxidotetrahydro-2H-thiopyran-4-yl)-7-(5-(2-methoxyquinolin-3-yl)-1H-imidazol-2-yl)-1,4-diazepan-1-yl)-2-(6-methoxy-2-(trifluoromethyl)-1H-benzo[d]imidazol-1-yl)ethan-1-one] cannot be ordered by EC50: under 0.1 µM for the first, under 0.1 µM for the second.

`CN1CCN(C(=O)CCS(=O)(=O)c2ccccc2)C(c2ncc(-c3ccc4ccccc4c3)[nH]2)C1` (stereo not shown) and `CO[C@@](C(=O)N1CCN(C)C[C@@H]1c1ncc(-c2ccc3ccccc3c2)[nH]1)(c1ccccc1)C(F)(F)F` fall in the same range of EC50: 1.01 to 5 µM for the first, 1.01 to 5 µM for the second.

First: COc1nc2ccccc2cc1-c1cnc(C2CS(=O)(=O)CCN2C(=O)Cn2c(C)nc3ccccc32)[nH]1 (stereo not shown)
Second: COc1nc2ccccc2cc1-c1cnc([C@@H]2CN(C3COC3)CCN2C(=O)Cn2c(C(F)(F)F)nc3ccccc32)[nH]1 [(S)-1-(2-(5-(2-methoxyquinolin-3-yl)-1H-imidazol-2-yl)-4-(oxetan-3-yl)piperazin-1-yl)-2-(2-(trifluoromethyl)-1H-benzo[d]imidazol-1-yl)ethan-1-one]
The EC50 of the first is higher: 1.01 to 5 µM for the first, under 0.1 µM for the second.

First: Cc1[nH]c2ccc(F)cc2c1CC(=O)N1CCS(=O)(=O)CC1c1ncc(-c2ccc3ccccc3c2)[nH]1 (stereo not shown)
Second: COc1nc2ccccc2cc1-c1cnc(C2CN(C3CCN(C)CC3)CCN2C(=O)Cc2c(C)[nH]c3ccc(F)cc23)[nH]1 (stereo not shown)
The EC50 of the first is lower: 0.1 to 0.5 µM for the first, 0.51 to 1 µM for the second.

First: COc1nc2ccccc2cc1-c1cnc(C2CN(CC3CCOC3)CCN2C(=O)Cc2cnc3ccccn23)[nH]1 (stereo not shown)
Second: COc1nc2ccccc2cc1-c1cnc(C2CN(CC3CCOC3)CCN2C(=O)Cn2c(C3CC3)nc3ccccc32)[nH]1 (stereo not shown)
The EC50 of the first is higher: 1.01 to 5 µM for the first, 0.1 to 0.5 µM for the second. The second is the more potent here.

`CCC(=O)CCCN1CCN(C(=O)c2ccccc2)C(c2ncc(-c3ccc4ccccc4c3)[nH]2)C1` (stereo not shown) [6-(4-benzoyl-3-(5-(naphthalen-2-yl)-1H-imidazol-2-yl)piperazin-1-yl)hexan-3-one] and `CCC(=O)CCCN1CCN(C(=O)c2cncs2)C(c2ncc(-c3ccc4ccccc4c3)[nH]2)C1` (stereo not shown) fall in the same range of EC50: 1.01 to 5 µM for the first, 1.01 to 5 µM for the second.

`COc1nc2ccccc2cc1-c1cnc([C@@H]2CN(Cc3cccnc3)CCN2C(=O)Cn2c(C(F)(F)F)nc3ccccc32)[nH]1` [(S)-1-(2-(5-(2-methoxyquinolin-3-yl)-1H-imidazol-2-yl)-4-(pyridin-3-ylmethyl)piperazin-1-yl)-2-(2-(trifluoromethyl)-1H-benzo[d]imidazol-1-yl)ethan-1-one] and `COc1nc2ccccc2cc1-c1cnc([C@@H]2CN(C[C@H]3CCOC3)CCN2C(=O)Cn2c(C(F)(F)F)nc3ccccc32)[nH]1` (single isomer, unassigned) cannot be ordered by EC50: under 0.1 µM for the first, under 0.1 µM for the second.

`COc1nc2ccccc2cc1-c1cnc(C2CN(C(=O)C3CCN(C)CC3)CCN2C(=O)Cc2c(C)[nH]c3ccc(F)cc23)[nH]1` (stereo not shown) and `CCC(=O)CCCN1CCN(C(=O)Cc2c(C)[nH]c3ccc(OC)cc23)C(c2ncc(-c3cc4ccccc4nc3OC)o2)C1` (stereo not shown) fall in the same range of EC50: 1.01 to 5 µM for the first, 1.01 to 5 µM for the second.

First: COc1nc2ccccc2cc1-c1cnc([C@@H]2CN(CC3CCOC3)CCN2C(=O)Cn2cc(C(F)(F)F)nc2C)[nH]1 (stereo partly shown)
Second: COc1nc2ccccc2cc1-c1cnc([C@@H]2CN(CC3CCOC3)CCN2C(=O)Cn2c(C(F)(F)F)nc3ccccc32)[nH]1 (stereo partly drawn) [1-((2S)-2-(5-(2-methoxyquinolin-3-yl)-1H-imidazol-2-yl)-4-((tetrahydrofuran-3-yl)methyl)piperazin-1-yl)-2-(2-(trifluoromethyl)-1H-benzo[d]imidazol-1-yl)ethan-1-one]
The EC50 of the first is higher: 1.01 to 5 µM for the first, under 0.1 µM for the second.

`COc1ccc2nc(C(F)(F)F)n(CC(=O)N3CC[C@H](N(Cc4ccn(C)n4)C(C)C)C[C@H]3c3ncc(-c4cc5ccccc5nc4OC)[nH]3)c2c1` [1-((2S,4S)-4-(isopropyl((1-methyl-1H-pyrazol-3-yl)methyl)amino)-2-(5-(2-methoxyquinolin-3-yl)-1H-imidazol-2-yl)piperidin-1-yl)-2-(6-methoxy-2-(trifluoromethyl)-1H-benzo[d]imidazol-1-yl)ethan-1-one] and `COc1ccc2nc(C(F)(F)F)n(CC(=O)N3CCN(Cc4ccn(C)n4)C[C@H]3c3ncc(-c4cc5ccccc5nc4OC)[nH]3)c2c1` [(S)-2-(6-methoxy-2-(trifluoromethyl)-1H-benzo[d]imidazol-1-yl)-1-(2-(5-(2-methoxyquinolin-3-yl)-1H-imidazol-2-yl)-4-((1-methyl-1H-pyrazol-3-yl)methyl)piperazin-1-yl)ethan-1-one] cannot be ordered by EC50: under 0.1 µM for the first, under 0.1 µM for the second.

First: COc1ccc2nc(C(F)(F)F)n(CC(=O)N3CCN(Cc4nccs4)C[C@H]3c3nnc(-c4cc5ccccc5nc4OC)[nH]3)c2c1 [(S)-2-(6-methoxy-2-(trifluoromethyl)-1H-benzo[d]imidazol-1-yl)-1-(2-(5-(2-methoxyquinolin-3-yl)-4H-1,2,4-triazol-3-yl)-4-(thiazol-2-ylmethyl)piperazin-1-yl)ethan-1-one]
Second: COc1ccc2nc(C(F)(F)F)n(CC(=O)N3CCN(Cc4ncnn4C)C[C@H]3c3ncc(-c4cc5ccccc5nc4OC)[nH]3)c2c1 [(S)-2-(6-methoxy-2-(trifluoromethyl)-1H-benzo[d]imidazol-1-yl)-1-(2-(5-(2-methoxyquinolin-3-yl)-1H-imidazol-2-yl)-4-((1-methyl-1H-1,2,4-triazol-5-yl)methyl)piperazin-1-yl)ethan-1-one]
The EC50 of the first is lower: under 0.1 µM for the first, 0.1 to 0.5 µM for the second.

`COc1ccc2c(c1)C(CC(=O)N1CCN(CC3CC3)CC1c1ncc(-c3ccc4ccccc4c3)[nH]1)C(=O)N2` (stereo not shown) and `CCCCCCN1CCN(C(=O)CC2C(=O)Nc3ccc(OC)cc32)C(c2ncc(-c3ccc4ccccc4c3)[nH]2)C1` (stereo not shown) fall in the same range of EC50: 1.01 to 5 µM for the first, 1.01 to 5 µM for the second.

`COc1nc2ccccc2cc1-c1cnc(C2CN(CC3CCOC3)CCN2C(=O)Cc2ccc(-c3nccnc3C)cc2)[nH]1` (stereo not shown) and `COc1ccc(-c2ccc(C(=O)N3CCN(CC4CCOC4)CC3c3ncc(-c4cc5ccccc5nc4OC)[nH]3)o2)cc1` (stereo not shown) fall in the same range of EC50: 1.01 to 5 µM for the first, 1.01 to 5 µM for the second.

First: COc1ccc2nc(C(F)(F)F)n(CC(=O)N3CC[C@H](N)C[C@H]3c3ncc(-c4cc5ccccc5nc4OC)[nH]3)c2c1 [1-((2S,4S)-4-amino-2-(5-(2-methoxyquinolin-3-yl)-1H-imidazol-2-yl)piperidin-1-yl)-2-(6-methoxy-2-(trifluoromethyl)-1H-benzo[d]imidazol-1-yl)ethan-1-one]
Second: COc1ccc2nc(C(F)(F)F)n(CC(=O)N3CC[C@H](NCCO)C[C@H]3c3ncc(-c4cc5ccccc5nc4OC)[nH]3)c2c1 [1-((2S,4S)-4-((2-hydroxyethyl)amino)-2-(5-(2-methoxyquinolin-3-yl)-1H-imidazol-2-yl)piperidin-1-yl)-2-(6-methoxy-2-(trifluoromethyl)-1H-benzo[d]imidazol-1-yl)ethan-1-one]
The EC50 of the first is higher: 1.01 to 5 µM for the first, under 0.1 µM for the second.

First: COc1ccc2nc(C(F)(F)F)n(CC(=O)N3CC[C@H](NCc4ccccn4)C[C@H]3c3ncc(-c4cc5ccccc5nc4OC)[nH]3)c2c1 [2-(6-methoxy-2-(trifluoromethyl)-1H-benzo[d]imidazol-1-yl)-1-((2S,4S)-2-(5-(2-methoxyquinolin-3-yl)-1H-imidazol-2-yl)-4-((pyridin-2-ylmethyl)amino)piperidin-1-yl)ethan-1-one]
Second: COc1ccc2nc(C(F)(F)F)n(CC(=O)N3CC[C@@H](NCc4nccs4)C[C@H]3c3ncc(-c4cc5ccccc5nc4OC)[nH]3)c2c1
The EC50 of the first is lower: under 0.1 µM for the first, 0.1 to 0.5 µM for the second.

`COc1nc2ccccc2cc1-c1cnc(C2CN(CC3CCOC3)CCN2C(=O)c2ccc(C3CCCO3)s2)[nH]1` (stereo not shown) and `COc1nc2ccccc2cc1-c1cnc(C2CN(CC3CCOC3)CCN2C(=O)c2c(-c3ccccc3)noc2C)[nH]1` (stereo not shown) fall in the same range of EC50: 1.01 to 5 µM for the first, 1.01 to 5 µM for the second.

First: COc1ccc2nc(C)n(CC(=O)N3CCN(Cc4ccn(C)n4)CCC3c3ncc(-c4cc5ccccc5nc4OC)[nH]3)c2c1 (stereo not shown) [2-(6-methoxy-2-methyl-1H-benzo[d]imidazol-1-yl)-1-(7-(5-(2-methoxyquinolin-3-yl)-1H-imidazol-2-yl)-4-((1-methyl-1H-pyrazol-3-yl)methyl)-1,4-diazepan-1-yl)ethan-1-one]
Second: COc1ccc2nc(C)n(CC(=O)N3CCN(Cc4nnc(C)o4)C[C@H]3c3ncc(-c4cc5ccccc5nc4OC)[nH]3)c2c1
The EC50 of the first is lower: under 0.1 µM for the first, 0.1 to 0.5 µM for the second.

First: O=C(Cc1nc2ccccc2o1)N1CCN(CC2CCOC2)CC1c1ncc(-c2ccc3ccccc3c2)[nH]1 (stereo not shown)
Second: CCCCCCN1CCN(C(=O)Cc2n[nH]c3ccccc23)C(c2ncc(-c3ccc4ccccc4c3)[nH]2)C1 (stereo not shown)
The EC50 of the first is lower: 0.51 to 1 µM for the first, 1.01 to 5 µM for the second.

`COc1ccc2nc(C(F)(F)F)n(CC(=O)N3CCN(Cc4ncco4)CCC3c3ncc(-c4cc5ccccc5nc4OC)[nH]3)c2c1` (stereo not shown) [2-(6-methoxy-2-(trifluoromethyl)-1H-benzo[d]imidazol-1-yl)-1-(7-(5-(2-methoxyquinolin-3-yl)-1H-imidazol-2-yl)-4-(oxazol-2-ylmethyl)-1,4-diazepan-1-yl)ethan-1-one] gave an EC50 of under 0.1 µM.
